This is an account of results in article PMC5442262, “Catechol glucosides act as donor/acceptor substrates of glucansucrase enzymes of Lactobacillus reuteri” (Applied Microbiology and Biotechnology, 2017).

Type in all cases: biochemical
For assay [1], the target named is T1, Gtf180-ΔN (Limosilactobacillus reuteri, UniProt Q5SBN3).
T1 construct: recombinant, N-terminally truncated (ΔN)
Briefly: MALDI-TOF-MS of products. The settings on record: 100 mM catG1, 24 h; 25 mM sodium acetate pH 4.7, 1 mM CaCl2, 37 °C; donor and acceptor.

The target in another assay is T2, GtfML1-ΔN (Limosilactobacillus reuteri, UniProt Q5SBN0).
T2 construct: recombinant, N-terminally truncated (ΔN); also printed GtfMLI-ΔN
Description: MALDI-TOF-MS of products. The following applies: 100 mM catG1, 24 h; 25 mM sodium acetate pH 4.7, 1 mM CaCl2, 37 °C; donor and acceptor.

For assay [2], the target named is T1, Gtf180-ΔN. Description: NP-HPLC of substrate decrease; 1H NMR of products. The following applies: 100 mM cat^6G2; 25 mM sodium acetate pH 4.7, 1 mM CaCl2, 37 °C; donor and acceptor.

T1 sequence (Q5SBN3 entry or part of it, stated change not applied): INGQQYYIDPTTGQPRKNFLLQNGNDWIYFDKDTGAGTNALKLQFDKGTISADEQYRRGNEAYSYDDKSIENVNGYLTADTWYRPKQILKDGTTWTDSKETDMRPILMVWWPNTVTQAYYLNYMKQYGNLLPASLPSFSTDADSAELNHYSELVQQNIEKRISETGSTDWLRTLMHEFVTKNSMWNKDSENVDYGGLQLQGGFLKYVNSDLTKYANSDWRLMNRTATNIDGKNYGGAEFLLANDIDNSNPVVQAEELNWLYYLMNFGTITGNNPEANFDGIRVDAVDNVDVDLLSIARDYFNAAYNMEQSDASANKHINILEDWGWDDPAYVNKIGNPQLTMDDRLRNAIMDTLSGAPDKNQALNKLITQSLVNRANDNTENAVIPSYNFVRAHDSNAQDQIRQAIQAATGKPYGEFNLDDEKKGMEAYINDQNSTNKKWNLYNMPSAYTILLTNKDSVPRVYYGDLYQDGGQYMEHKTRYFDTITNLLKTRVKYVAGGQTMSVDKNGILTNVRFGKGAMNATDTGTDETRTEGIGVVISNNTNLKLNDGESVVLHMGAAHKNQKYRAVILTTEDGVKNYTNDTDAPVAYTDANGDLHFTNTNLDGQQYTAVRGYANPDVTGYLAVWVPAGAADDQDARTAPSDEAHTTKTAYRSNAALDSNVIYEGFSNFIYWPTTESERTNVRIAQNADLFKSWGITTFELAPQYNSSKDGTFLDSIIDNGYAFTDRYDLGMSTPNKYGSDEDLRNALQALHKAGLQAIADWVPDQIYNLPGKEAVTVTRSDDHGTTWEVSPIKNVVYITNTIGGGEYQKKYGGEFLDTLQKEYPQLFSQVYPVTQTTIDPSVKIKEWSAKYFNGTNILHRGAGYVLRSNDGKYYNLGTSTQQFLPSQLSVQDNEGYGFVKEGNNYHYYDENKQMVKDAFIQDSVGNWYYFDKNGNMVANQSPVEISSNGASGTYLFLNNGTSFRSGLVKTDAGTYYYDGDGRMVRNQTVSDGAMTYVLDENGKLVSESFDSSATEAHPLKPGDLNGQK
T2 sequence (Q5SBN0 entry or part of it, stated change not applied): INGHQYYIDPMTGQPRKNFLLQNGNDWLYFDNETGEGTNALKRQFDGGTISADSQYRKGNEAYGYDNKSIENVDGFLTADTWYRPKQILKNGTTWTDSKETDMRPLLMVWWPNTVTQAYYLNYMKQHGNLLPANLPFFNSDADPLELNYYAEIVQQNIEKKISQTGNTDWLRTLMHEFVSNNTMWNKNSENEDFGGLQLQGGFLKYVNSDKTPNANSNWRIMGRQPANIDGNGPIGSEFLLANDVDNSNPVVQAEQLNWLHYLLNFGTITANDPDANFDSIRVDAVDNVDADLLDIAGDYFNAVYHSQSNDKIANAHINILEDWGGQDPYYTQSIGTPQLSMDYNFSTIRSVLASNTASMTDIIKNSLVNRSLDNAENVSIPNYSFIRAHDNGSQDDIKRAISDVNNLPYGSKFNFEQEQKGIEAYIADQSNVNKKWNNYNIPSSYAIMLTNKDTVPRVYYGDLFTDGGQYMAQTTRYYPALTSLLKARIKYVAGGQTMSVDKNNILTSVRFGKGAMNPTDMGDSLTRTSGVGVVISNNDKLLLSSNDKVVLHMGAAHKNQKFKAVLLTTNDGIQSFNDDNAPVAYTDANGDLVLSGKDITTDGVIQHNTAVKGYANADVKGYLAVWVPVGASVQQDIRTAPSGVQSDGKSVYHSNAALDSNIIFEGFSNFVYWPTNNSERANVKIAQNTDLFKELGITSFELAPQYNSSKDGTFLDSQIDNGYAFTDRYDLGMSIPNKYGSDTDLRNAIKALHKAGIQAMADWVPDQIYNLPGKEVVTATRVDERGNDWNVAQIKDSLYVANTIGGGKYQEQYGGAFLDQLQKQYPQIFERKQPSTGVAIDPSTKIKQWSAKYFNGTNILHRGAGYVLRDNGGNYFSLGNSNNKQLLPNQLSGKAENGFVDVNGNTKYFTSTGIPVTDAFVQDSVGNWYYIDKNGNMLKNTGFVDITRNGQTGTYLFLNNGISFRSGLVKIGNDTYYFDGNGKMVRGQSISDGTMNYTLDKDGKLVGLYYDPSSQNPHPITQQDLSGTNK

Regarding `OC[C@H]1O[C@H](Oc2ccccc2O)[C@H](O)[C@@H](O)[C@@H]1O` [catG1], the MALDI-TOF-MS of products result is “Gtf180-ΔN and GtfMLI-ΔN glucansucrase enzymes also were able to use catG1 as glucosyl donor” on Gtf180-ΔN [1]; “Gtf180-ΔN and GtfMLI-ΔN glucansucrase enzymes also were able to use catG1 as glucosyl donor” on GtfML1-ΔN. As to `OC[C@H]1O[C@H](OC[C@H]2O[C@H](Oc3ccccc3O)[C@H](O)[C@@H](O)[C@@H]2O)[C@H](O)[C@@H](O)[C@@H]1O` [cat^6G2], the “NP-HPLC of substrate decrease; 1H NMR of products” value at Gtf180-ΔN [2] is “Gtf180-ΔN used both cat^3G2 and cat^6G2 as donor/acceptor substrates”.
